Data on four molecules can be found in US20250282733A1, “NOVEL 1,2,3,4,4A,5,6,7,8,9,10,10A-DODECAHYDROBENZO[G]QUINOLIN-6-OL COMPOUNDS AND USES THEREOF” (priority 2022, published 2025).

What all share (assay type): in vivo, rat
Data set [1] relates to unilaterally 6-OHDA lesioned rats. As to the kind of experiment: Contralateral rotations in unilaterally 6-OHDA lesioned rats. The following applies: for contralateral turns: dopamine-receptor agonist potency / duration of action as compared to that of apomorphine / bioavailability indicated by contralateral turns after IP and PO administration: 0.1 mg/kg, FIG. 4; for contralateral turns: dopamine-receptor agonist potency: IP (n=4) and PO (n=6); for duration of action as compared to that of apomorphine: IP and PO; for bioavailability indicated by contralateral turns after IP and PO administration: IP vs PO. How it is done: Male Sprague-Dawley rats (150 g; Scanbur, Sweden) were used for this study and housed in separate air-conditioned rooms (12-h dark/light cycle) at 20° C. and a humidity of 53%. Experiments were performed in agreement with the European Communities Council Directive of 24 Nov. 1986 (86/609/EEC) on the ethical use of animals and were approved by the local ethical committee at Karolinska Institute. In most of the experiments, unilaterally 6-OHDA lesioned rats were used to mimic aspects of Parkinsonism. Unilateral 6-OHDA lesioning of nigral dopaminergic axons was performed as previously described (Zhang et al., Neuropharmacology 54 (2008) 1143-1152). Briefly, rats were anesthetized with ketamine (100 mg/kg, i.p.; Parke-Davis, Boxmeer, Netherlands)/xylazine (5 mg/kg, i.p.; Bayer, Kiel, Germany), pretreated with desipramine (25 mg/kg, i.p.; Sigma, Stockholm, Sweden) and pargyline (5 mg/kg, i.p.; Sigma), placed in a stereotaxic instrument and injected with 6-OHDA (2.5 p.I of a 5 mg/ml solution; Sigma) into the medial forebrain bundle of the right hemisphere (AP—2.8 mm, ML—2.0 mm and V—9.0 mm). Two weeks after unilateral 6-OHDA lesioning, rats were administered with apomorphine (1 mg/kg, i.p; Sigma), and their contralateral rotations were measured. […] Only rats which rotated contralaterally more than 100 times were included in further experiments.
The time scale is minutes or hours after administration. […] Negative control animals were injected with saline.

Another data set concerns Arc mRNA. As to the kind of experiment: m-RNA analysis of Arc in brain regions (real-time PCR). The note with it: 0.3 and 1 μmol/kg SC, 60 min after injection, percent of control, FIG. 5. How it is done: (§1) Animals were killed 60 min after the injection of the drugs by decapitation.
(§2) The brains were dissected into a left and a right part. The left part was analyzed for gene expression and dissected into 4 different areas:
(§3) Limbic system (containing nucleus accumbens, most parts of the olfactory tubercle, ventral pallidum and amygdala), striatum, frontal cortex, and hippocampus.
(§4) Total RNA was prepared by RNeasy Plus Universal Tissue Mini Kit (Qiagen).
(§5) RNA pellets were dissolved in RNAse-free water and stored at −80° C. The sample concentration was determined spectrophotometrically by a NanoDrop ND-1000.
A two-step reversed transcription was performed by using a SuperScript III kit (Invitrogen). 1 μg of total RNA was reversed transcribed with 5 μl 2×RT Reaction Mix, 1 μl RT Enzyme and the mix volume was adjusted to 10 μl with RNAse-free water. The sample was incubated at 25° C. for 10 min, 50° C. for 30 min and finally 85° C. for 5 min. 1 U of E. coli RNase H was added following incubation at 37° C. for 20 min and 85° C. for 5 minutes. The cDNA solution was diluted 40 times in Tris EDTA buffer solution pH8 (Merck) and stored at −20° C.
Three sequences (arc and two reference genes) were amplified together in a triplex PCR-reaction. For real-time PCR measurements: 5 μl of the cDNA reaction was amplified in a 20 μl reaction mixture containing 10 μl PerfeCTa MultiPlex qPCR SuperMix (Quantabio), 3.5 μl RNAse-free water, 0.15 µM of each primer and 0.1 μM of each probe. Real-time PCR was measured on CFX96 (Bio-Rad) using the following settings for all genes: 3 min pre-incubation at 95° C. followed by 40 cycles of denaturation at 95° C. for 15 s, annealing and elongation at 60° C. for 1 min. Reference genes are HPRT and cyclophilin.
FIG. 5 illustrates the effects on tissue levels of Arc mRNA in four different regions of the brain (limbic regions, striatum, frontal cortex and hippocampus) after subcutaneous administration of two different compounds at two different doses as in comparison to that of corresponding control experiments. The bars in the left half of the figure represent the effects on ARC by the prior art compound according to Preparation 4A ((4aR,10aR)-1-propyl-1,2,3,4,4a,5,8,9,10,10a-decahydrobenzo[g]quinolin-6 (7H)-one) and the bars in the right half of the figure represent the effects on ARC by the compound of the present disclosure according to Example 4B ((4aR,10aR)-1-propyl-1,2,3,4,4a,5,6,7,8,9,10,10a-dodecahydrobenzo[g]quinolin-6-ol). The effects on tissue levels of Arc by both of the two aforementioned compounds were measured at two different doses (0.3 μmol/kg and 1 μmol/kg) and the effect is presented as percent of control means±SEM. Statistical significance was assessed using Student's t-test (2 tailed) vs controls.
(Real-time PCR tracks product formation cycle by cycle.)

The subject of a further data set is Npas4. As to the kind of experiment: m-RNA analysis of Npas4 in brain regions (Taqman PCR). The note with it: SC. The protocol: as §1, §2, §3, §4, §5
(§6) A two-step reversed transcription was performed by using a SuperScript III kit (Invitrogen). 1 μg of total RNA was reversed transcribed with 5 μl 2×RT Reaction Mix, 1 μl RT Enzyme and the mix volume was adjusted to 10 μl with RNAse-free water. The sample was incubated at 25° C. for 10 min, 50° C. for 30 min and finally 85° C. for 5 min. […]
(§7) EGR-1 (Early growth response qRnoCEP0022872) was analyzed in duplex with the reference gene HPRT (hypoxanthine phosphoribosyltransferase qRnoCEP0050840). Npas4 (neuronal PAS domain protein4 qRnoCEP0029461) was analyzed in singleplex. The reference gene Ppia (cyclophilin A peptidyl-propyl cis-trans isomerase qRnoCIP0050815) was also analyzed in order to quantify gene expression for genes of interest.

In another data set the test system is egr-1. The data set can be described thus: m-RNA analysis of egr-1 in brain regions (Taqman PCR). The following applies: SC. How it is done:
as §1, §2, §3, §4, §5, §6, §7

Data set [2] relates to non-pre-treated Sprague-Dawley rats. As to the kind of experiment: Spontaneous locomotor activity (distance travelled). The note with it: 0.3 μmol/kg SC; for effect on motor activity (distance travelled): n=5, 0-180 min, vs saline, FIG. 6 and 7. How it is done:
Behavioral activity was measured using eight Digiscan activity monitors (RXYZM (16) TAO, Omnitech Electronics, Columbus, OH, USA), connected to an Omnitech Digiscan analyzer and an Apple Macintosh computer equipped with a digital interface board (NB DIO-24, National Instruments, USA). Each activity monitor consisted of a quadratic metal frame (W×L=40 cm×40 cm) equipped with photo beam sensors. During measurements of behavioral activity, a rat was put in a transparent acrylic cage (W×L×H, 40×40×30 cm) which in turn was placed in the activity monitor. Each activity monitor was equipped with three rows of infrared photo beam sensors, each row consisting of 16 sensors. Two rows were placed along the front and the side of the floor of the cage, at a 90° angle, and the third row was placed 10 cm above the floor to measure vertical activity. Photo beam sensors were spaced 2.5 cm apart. Each activity monitor was fitted in an identical sound and light attenuating box containing a weak house light and a fan.
The computer software was written using object-oriented programming (LabVIEW™ National instruments, Austin, TX, USA).
Behavioral data from each activity monitor, representing the position (horizontal center of gravity and vertical activity) of the animal at each time, were recorded at a sampling frequency of 25 Hz and collected using a custom written LABView™ application. The data from each recording session were stored and analyzed with respect to distance traveled. Each behavioral recording session lasted 180 min, starting approximately 5 min after the injection of test compound.
Compounds disclosed herein have been tested for effects on spontaneous locomotor activity in non-pre-treated Sprague-Dawley rats (based on accumulated distance travelled 0-180 min post dosing), and with the single dose of 0.3 μmol/kg (n=5, SC) compared to a control group of animals (n=5) that obtained saline (SC). The unit of the distance travelled is an arbitrary unit.
The animals were placed in the motility meters immediately after administration and locomotor activity was recorded for 180 minutes.
Results are presented as distance travelled for the control group (empty bar) and for the group of animals that obtained the drug (filled bar).
The animals were placed in the motility meters immediately after administration and locomotor activity was recorded for 180 minutes. Results are presented as distance travelled for the control group (empty bars) and for the group of animals that obtained the drug (filled bar).

With `CCCN1CCC[C@@H]2CC3=C(CCC[C@@H]3O)C[C@H]21` [epimer 2, (4aR,6S,10aR)-1-propyl-1,2,3,4,4a,5,6,7,8,9,10,10a-dodecahydrobenzo[g]quinolin-6-ol], in data set [1], the “contralateral turns: dopamine-receptor agonist potency” value is recorded as “highly potent dopamine-receptor agonists”; the “duration of action as compared to that of apomorphine” value was “very long duration of action”; the “bioavailability indicated by contralateral turns after IP and PO administration” value is “good bioavailability”.

With `CCCN1CCC[C@@H]2CC3=C(CCC[C@H]3O)C[C@H]21` [Example 4B, (4aR,6R,10aR)-1-propyl-1,2,3,4,4a,5,6,7,8,9,10,10a-dodecahydrobenzo[g]quinolin-6-ol], in data set [1], the “contralateral turns: dopamine-receptor agonist potency” value is “highly potent dopamine-receptor agonists”; the “duration of action as compared to that of apomorphine” value is given as “very long duration of action”; the “bioavailability indicated by contralateral turns after IP and PO administration” value was “good bioavailability”. Further, in the data set with Arc mRNA, the “tissue levels of Arc in the frontal cortex” value was “dose-dependently increase” and the “tissue levels of Arc in the limbic regions” value is “dose-dependently increases”. The “tissue levels of Npas4 in the limbic regions” value with Npas4 (60 min after injection) is on record as “increases tissue levels”. In addition, the “increase of Npas4 in the limbic regions compared to Preparation 4A” value in the data set with Npas4 (vs prior art compound) was “to a greater extent”. In addition, the “tissue levels of egr-1 in the limbic regions” value in the data set with egr-1 (60 min after injection) is “increases tissue levels”. The “increase of egr-1 in the limbic regions compared to Preparation 4A” value in the data set on egr-1 (vs prior art compound) is given as “to a greater extent”. Besides, in data set [2], the “on-set of action (distance travelled increases after the initial decrease)” value lay within 35 to 40 min; the “side effect profile, inferred from slower on-set of action” value was “no or a mild side effect profile”; the “effect on motor activity (distance travelled)” value is “induce hyperactivity”.

For `CN1CCc2cccc3c2[C@H]1Cc1ccc(O)c(O)c1-3` [apomorphine, reference compound], the “contralateral turns as a function of time (course of effect)” value in data set [1] (1 mg/kg i.p., FIG. 3) is recorded as “declines over time”.

As to `CCCN1CCC[C@@H]2CC3=C(CCCC3=O)C[C@H]21` [Preparation 4A, (4aR,10aR)-1-propyl-1,2,3,4,4a,5,8,9,10,10a-decahydrobenzo[g]quinolin-6 (7H)-one], in the data set on Arc mRNA, the “tissue levels of Arc in the frontal cortex” value is given as “dose-dependently increase” and the “tissue levels of Arc in the limbic regions” value was “does not have”. Moreover, in data set [2], the “on-set of action (distance travelled increases after the initial decrease)” value lay in the range of 20 to 25 min, the “time at which a long distance travelled is already reached (steep immediate effect)” value was in the range of 20 to 45 min and the “effect on motor activity (distance travelled)” value is listed as “induce hyperactivity”. The “peak plasma concentration of the active species, inferred from locomotor data” value in data set [2] (compared to Example 4B) is on record as “higher peak plasma concentration”.
